From the supplement of paper PMC11127212 come the findings set out here.

Data set [1] is described as follows: retention time on BEH HILIC column (20 min gradient, 0.4 mL/min); higher = later elution. The settings on record: LC: HILIC. The procedure: (§1)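 Reference standards (20-100 uM) were separated by HILIC UPLC (BEH HILIC, 45 °C): acidic pH 3.0 ammonium formate/formic acid for ESI+ and basic pH 9.0 ammonium acetate/ammonia for ESI-. They were analysed on a Synapt G2-Si traveling-wave IMS-QTOF with nitrogen drift gas (WH 30 V; WV 800 m/s in ESI+ and 1000 m/s in ESI-).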

Data set [2] can be described thus: collision cross section (TWIMS, N2) of ion [M+H-H2O]+; higher = larger gas-phase ion cross section. The settings on record: ionization: ESI positive; LC: HILIC, pH 3.0 ammonium formate. The procedure:
(§2)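 Reference standards (20-100 uM) were separated by HILIC UPLC (BEH HILIC, 45 °C): acidic pH 3.0 ammonium formate/formic acid for ESI+ and basic pH 9.0 ammonium acetate/ammonia for ESI-. They were analysed on a Synapt G2-Si traveling-wave IMS-QTOF with nitrogen drift gas (WH 30 V; WV 800 m/s in ESI+ and 1000 m/s in ESI-). CCS (TWCCSN2, Å2) was calibrated with Major Mix IMS/TOF and LockCCS leucine enkephalin; inter-day RSD was <1%.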

Data set [3] can be described thus: collision cross section (TWIMS, N2) of ion [M+Na]+; higher = larger gas-phase ion cross section. The settings on record: ionization: ESI positive; LC: HILIC, pH 3.0 ammonium formate. Here is the method: as §2
Data set [4] is described as follows: collision cross section (TWIMS, N2) of ion [M+H]+; higher = larger gas-phase ion cross section. The settings on record: ionization: ESI positive; LC: HILIC, pH 3.0 ammonium formate. Here is the method: as §1
The nature of data set [5]: collision cross section (TWIMS, N2) of ion [M-H]-; higher = larger gas-phase ion cross section. The settings on record: ionization: ESI negative; LC: HILIC, pH 9.0 ammonium acetate. Here is the method:
as §1

[6] abbreviates: ionization: ESI positive, pH 3.0 ammonium formate.
The mark [7] stands for this setting: ionization: ESI negative, pH 9.0 ammonium acetate.

For the compound `O=C(O)/C=C\C(=O)O` [Maleic acid], in data set [1] (setting [6]), the “retention time on BEH HILIC column” value amounted to 0.82 min. In data set [2], this compound displayed a collision cross section of 114.1 Å².
As to `C[N+](C)(C)CC(=O)O` [Betaine], the figures for the collision cross section in data set [3] and in data set [4] were 132.22 Å² and 125.33 Å², respectively. For the same compound, the “retention time on BEH HILIC column” value in data set [1] (setting [6]) was determined as 7.16 min.
For `Nc1nc2c(ncn2[C@@H]2O[C@@H]3COP(=O)(O)O[C@H]3[C@H]2O)c(=O)[nH]1` [cGMP], the collision cross section in data set [3] is 178.55 Å²; in data set [5], 172.34 Å²; in data set [4] it was 171.22 Å². The “retention time on BEH HILIC column” value amounted to 6.9 min in data set [1] (setting [7]) and 6.92 min in data set [1] (setting [6]).
The matching figures for `O=C(O)CNC(=O)c1ccccc1` [Hippuric acid]: 146.37 Å², 139.07 Å², 138.49 Å², 2.21 min and 2.16 min.
The matching figures for `N[C@@H](Cc1ccc(O)cc1)C(=O)O` [L-tyrosine]: 143.2 Å², 141.65 Å², 141.09 Å², 6.79 min and 6.67 min.
The matching figures for `NCCC(=O)N[C@@H](Cc1cnc[nH]1)C(=O)O` [Carnosine]: 152.28 Å², 154.88 Å², 151.65 Å², 11.7 min and 11.8 min.
In the case of `Nc1ncnc2nc[nH]c12` [Adenine], the collision cross section in data set [3] is given as 134.02 Å²; in data set [5], 126.29 Å²; in data set [4], 125.13 Å². Besides, the “retention time on BEH HILIC column” value in data set [1] (setting [7]) was 2.71 min; in data set [1] (setting [6]) it was 2.59 min.
Regarding `OC[C@H]1OC(O)[C@H](O)[C@@H]1O` (stereo partly drawn) [D-ribose], the collision cross section in data set [3] is 131.78 Å²; in data set [5], 121.34 Å². In addition, the “retention time on BEH HILIC column” value in data set [1] (setting [7]) stood at 1.58 min; in data set [1] (setting [6]) it was 1.71 min.
The matching figures for `OC[C@@H](O)[C@@H](O[C@H]1O[C@H](CO)[C@@H](O)[C@H](O)[C@H]1O)[C@H](O)[C@@H](O)CO` [Maltitol]: 174.13 Å², 171.26 Å², 6.83 min and 6.7 min.
For the compound `CSCC[C@H](N)C(=O)O` [L-methionine], the collision cross section in data set [3] was 135.16 Å²; in data set [5] it was 132.57 Å²; in data set [4], 131.48 Å². Also, the “retention time on BEH HILIC column” value was found to be 6.8 min in data set [1] (setting [7]) and 6.59 min in data set [1] (setting [6]).
With `CCCCCCCCCCCCCCCCCCC(=O)O` [Nonadecanoic acid], the collision cross section in data set [3] came out at 190.13 Å²; in data set [5], 188.17 Å². Moreover, the “retention time on BEH HILIC column” value in data set [1] (setting [7]) is 0.73 min; in data set [1] (setting [6]) it was 0.77 min.
The matching figures for `O[C@H]1[C@H](O)[C@@H](O)[C@H](O)[C@@H](O)[C@H]1O` [myo-inositol]: 146 Å², 133.54 Å², 5.92 min and 5.84 min.
The matching figures for `OC[C@@H](O)C(O)[C@H](O)CO` [D-arabitol]: 133.34 Å², 126.54 Å², 3.16 min and 3.12 min.
The matching figures for `O=C[C@H](O)COP(=O)(O)O` [D-glyceraldehyde 3-phosphate]: 137.94 Å², 131.08 Å², 12.1 min and 11.6 min.
For the compound `O=C(CO)[C@@H](O)[C@H](O)[C@H](O)COP(=O)(O)O` [Fructose 6-phospahte], the values for the collision cross section in data set [3] and in data set [5] were 151.18 Å² and 146.38 Å², respectively. The figures for the “retention time on BEH HILIC column” value in data set [1] (setting [7]) and in data set [1] (setting [6]) were 11.9 min and 8.86 min, respectively.
The matching figures for `CCCCCCCCCCCCCCCCCCCC(=O)O` [Arachidic acid]: 198.31 Å², 193.88 Å², 0.73 min and 0.79 min.
Turning to `CCCCC/C=C\C/C=C\CCCCCCCC(=O)O` [Linoleic acid], the collision cross section came to 174.95 Å² in data set [3] and 179.98 Å² in data set [5]. For the same compound, the “retention time on BEH HILIC column” value in data set [1] (setting [7]) was 0.73 min; in data set [1] (setting [6]) it was 0.75 min.
The matching figures for `OC[C@@H](O)[C@@H](O)[C@H](O)[C@@H](O)CO` [Sorbitol]: 140.03 Å², 133.44 Å², 4.6 min and 4.7 min.
Regarding `OC[C@H]1O[C@@](CO)(O[C@H]2O[C@H](CO)[C@@H](O)[C@H](O)[C@H]2O)[C@@H](O)[C@@H]1O` [Sucrose], the values for the collision cross section in data set [3] and in data set [5] were 171.56 Å² and 169.11 Å², respectively. The “retention time on BEH HILIC column” value was found to be 6.6 min in data set [1] (setting [7]) and 6.77 min in data set [1] (setting [6]).
Consider `OC[C@H]1O[C@@H](n2cnc3c(O)ncnc32)[C@H](O)[C@@H]1O` [Inosine], for which the collision cross section in data set [3] was found to be 166.42 Å²; in data set [5], 159.47 Å²; in data set [4], 155.86 Å². The “retention time on BEH HILIC column” value turned out to be 3.4 min in data set [1] (setting [7]) and 2.31 min in data set [1] (setting [6]).
Consider `CN1CC(=O)NC1=N` [Creatinine], for which the results for the collision cross section in data set [3], in data set [5] and in data set [4] were 129.07 Å², 120.56 Å² and 120.17 Å², respectively. Also, the “retention time on BEH HILIC column” value in data set [1] (setting [7]) amounted to 1.98 min; in data set [1] (setting [6]), 2.79 min.
Turning to `OC[C@H]1O[C@H](O)[C@@H](O)[C@@H](O)[C@@H]1O` [D-mannose], the collision cross section in data set [3] turned out to be 140.11 Å²; in data set [5], 132.14 Å². Moreover, the “retention time on BEH HILIC column” value stood at 5.43 min in data set [1] (setting [7]) and 3.87 min in data set [1] (setting [6]).
The matching figures for `OC[C@@H](O)[C@@H](O)[C@@H](O)CO` [Ribitol]: 133.34 Å², 126.54 Å², 3.57 min and 2.85 min.
As to `CCCCCCCCCCCCCCCC(=O)O` [Palmitic acid], the collision cross section worked out at 179.96 Å² in data set [3] and 170.14 Å² in data set [5]. The “retention time on BEH HILIC column” value in data set [1] (setting [7]) stood at 0.77 min; in data set [1] (setting [6]), 0.72 min.
The matching figures for `OC[C@H]1O[C@@H](O[C@H]2[C@H](O)[C@@H](O)[C@@H](O)O[C@@H]2CO)[C@H](O)[C@@H](O)[C@H]1O` [D-lactose]: 171.29 Å², 172.39 Å², 7.33 min and 6.42 min.
The matching figures for `OC[C@@H](O)[C@@H](O)[C@H](O)[C@H](O)CO` [Mannitol]: 140.03 Å², 134.82 Å², 4.75 min and 4.8 min.
As to `O=C(O)[C@@H]1CCCN1` [L-proline], the figures for the collision cross section in data set [3], in data set [5] and in data set [4] were 130.65 Å², 116.46 Å² and 123.7 Å², respectively. Also, the “retention time on BEH HILIC column” value came out at 7.23 min in data set [1] (setting [7]) and 7.22 min in data set [1] (setting [6]).
The matching figures for `O=C(O)c1cccnc1` [Nicotinic acid]: 128.31 Å², 121.16 Å², 122.92 Å², 2.74 min and 2.74 min.
As for `Nc1nc(=O)c2nc(CNc3ccc(C(=O)N[C@@H](CCC(=O)O)C(=O)O)cc3)cnc2[nH]1` [Folic acid], the collision cross section in data set [3] was 201.44 Å²; in data set [5], 187.54 Å²; in data set [4], 196.77 Å². For the same compound, the “retention time on BEH HILIC column” value in data set [1] (setting [7]) turned out to be 11.4 min; in data set [1] (setting [6]) it was 6.7 min.
